From ChEMBL document CHEMBL1201862, “PubChem BioAssay data set” (2004)
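All cell lines were grown in 96-well plates and treated with compound for 48 hours. GI50 marks 50% less growth.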 Active and inactive are the calls of the source. Rule as the data show it: active = GI50 up to about 1.1 µM and inactive = higher.

What was measured:
Experiment in all cases: NCI anticancer screen, dose series, 48 h
BT-549 = test system: BT-549
NCI-H522 = test system: NCI-H522
SK-MEL-2 = test system: SK-MEL-2
T47D = test system: T47D
SK-OV-3 = test system: SK-OV-3
IGROV-1 = test system: IGROV-1
OVCAR-4 = test system: OVCAR-4
SK-MEL-28 = test system: SK-MEL-28
MDA-MB-231 = test system: MDA-MB-231
Malme-3M = test system: Malme-3M
UO-31 = test system: UO-31
MDA-N = test system: MDA-N
SF-268 = test system: SF-268
OVCAR-8 = test system: OVCAR-8
K562 = test system: K562
U-251 = test system: U-251
SN12C = test system: SN12C
RXF 393 = test system: RXF 393
Hs-578T = test system: Hs-578T
DU-145 = test system: DU-145

Measured: GI50

COc1ccc(Cc2ccccc2C(=O)O)c2ccccc12
inactive: BT-549 39.2 µM | NCI-H522 20.3 µM | SK-MEL-2 22.2 µM | T47D 44.4 µM | SK-OV-3 40.6 µM | IGROV-1 30.6 µM | OVCAR-4 36.6 µM | SK-MEL-28 25.1 µM | MDA-MB-231 32 µM | Malme-3M 21.8 µM | UO-31 32.1 µM | MDA-N 27.6 µM | SF-268 22.8 µM | OVCAR-8 28.5 µM | K562 37 µM | U-251 25.7 µM | SN12C 29.2 µM | RXF 393 44.3 µM | Hs-578T 12.1 µM | DU-145 37.5 µM

O=C1/C(=C/c2ccccc2)CN(C(=O)/C=C/c2ccccc2)C/C1=C\c1ccccc1
inactive: BT-549 2.26 µM | NCI-H522 8.99 µM | SK-MEL-2 21.4 µM | T47D 4.43 µM | SK-OV-3 27.7 µM | IGROV-1 6.95 µM | OVCAR-4 6.85 µM | SK-MEL-28 7.62 µM | MDA-MB-231 3.18 µM | Malme-3M 16.1 µM | UO-31 12.4 µM | MDA-N 1.87 µM | SF-268 11.2 µM | OVCAR-8 4.88 µM | K562 2.98 µM | U-251 3.59 µM | SN12C 5.43 µM | RXF 393 15.6 µM | Hs-578T 4.27 µM | DU-145 18.6 µM

CCN(CC)CCn1c(=O)c2cccnc2n2c3c(=O)n(C)c(=O)n(C)c3nc12
inactive: BT-549 > 100 µM | NCI-H522 > 100 µM | SK-MEL-2 > 100 µM | T47D > 100 µM | SK-OV-3 > 100 µM | IGROV-1 > 100 µM | OVCAR-4 > 100 µM | SK-MEL-28 > 100 µM | MDA-MB-231 > 100 µM | Malme-3M 65.2 µM | UO-31 86.1 µM | MDA-N > 100 µM | SF-268 > 100 µM | OVCAR-8 > 100 µM | K562 > 100 µM | U-251 > 100 µM | SN12C > 100 µM | RXF 393 > 100 µM | Hs-578T > 100 µM | DU-145 > 100 µM

COC(=O)Nc1nc2cc(C(=O)c3ccc[nH]3)ccc2[nH]1
inactive: BT-549 > 100 µM | SK-OV-3 2.03 µM | IGROV-1 1.7 µM | OVCAR-4 > 100 µM | MDA-MB-231 20.6 µM | UO-31 1.21 µM | SF-268 2.04 µM | OVCAR-8 3.18 µM | SN12C 1.15 µM | Hs-578T 1.54 µM | DU-145 1.82 µM
active: NCI-H522 0.402 µM | SK-MEL-2 0.353 µM | T47D 0.959 µM | SK-MEL-28 0.711 µM | Malme-3M 0.418 µM | MDA-N 0.134 µM | K562 0.387 µM | U-251 0.721 µM | RXF 393 0.0895 µM

Cn1c2c(c3ccccc31)CCN1C(=O)C3SC21C1C(=O)N(c2ccccc2)C(=O)C31 (stereo not given)
active: SK-MEL-2 0.0256 µM
inactive: BT-549 > 100 µM | NCI-H522 > 100 µM | T47D > 100 µM | SK-OV-3 > 100 µM | IGROV-1 > 100 µM | OVCAR-4 > 100 µM | SK-MEL-28 25.4 µM | MDA-MB-231 > 100 µM | Malme-3M > 100 µM | UO-31 > 100 µM | MDA-N > 100 µM | SF-268 > 100 µM | OVCAR-8 > 100 µM | K562 40.4 µM | U-251 > 100 µM | SN12C > 100 µM | RXF 393 > 100 µM | Hs-578T > 100 µM | DU-145 > 100 µM

O=C(SC1=NCCN1)c1cccc2ccccc12
inactive: BT-549 64.7 µM | NCI-H522 19.5 µM | SK-MEL-2 > 100 µM | T47D 44.9 µM | SK-OV-3 44.5 µM | IGROV-1 63.7 µM | OVCAR-4 59.8 µM | SK-MEL-28 96.2 µM | MDA-MB-231 > 100 µM | Malme-3M 78.9 µM | UO-31 42.9 µM | MDA-N 76 µM | SF-268 > 100 µM | OVCAR-8 71.9 µM | K562 25.4 µM | U-251 45.5 µM | SN12C 64.6 µM | RXF 393 53.7 µM | Hs-578T 81.3 µM | DU-145 67.5 µM

CC(=O)NNc1nc(C)c(C(/C=C/c2cccc([N+](=O)[O-])c2)=N/NC(=S)NN)s1
inactive: BT-549 > 100 µM | NCI-H522 > 100 µM | SK-MEL-2 > 100 µM | T47D > 100 µM | SK-OV-3 > 100 µM | IGROV-1 > 100 µM | OVCAR-4 > 100 µM | SK-MEL-28 > 100 µM | MDA-MB-231 > 100 µM | Malme-3M > 100 µM | UO-31 > 100 µM | MDA-N > 100 µM | SF-268 > 100 µM | OVCAR-8 > 100 µM | K562 > 100 µM | U-251 > 100 µM | SN12C > 100 µM | RXF 393 > 100 µM | Hs-578T > 100 µM | DU-145 > 100 µM

C[N+](C)(C)CC(=O)N/N=C(\C(=O)NC1=C(Cl)C(=O)c2ccccc2C1=O)C(C#N)c1nc(-c2ccc([N+](=O)[O-])cc2)cs1 (stereo not given)
inactive: BT-549 3.77 µM | NCI-H522 7.31 µM | SK-MEL-2 4.46 µM | T47D 5.85 µM | SK-OV-3 21.1 µM | IGROV-1 6.71 µM | OVCAR-4 10.1 µM | SK-MEL-28 6.1 µM | MDA-MB-231 10.3 µM | Malme-3M 1.86 µM | UO-31 15.6 µM | MDA-N 1.74 µM | SF-268 12.3 µM | OVCAR-8 9.35 µM | K562 10.8 µM | U-251 6.97 µM | SN12C 9.42 µM | RXF 393 11.2 µM | Hs-578T 7.85 µM | DU-145 6.08 µM

O=C1/C(=C/c2ccc3c(c2)OCO3)CCC1CN1CCOCC1 (stereo not given)
inactive: BT-549 18 µM | SK-MEL-2 12 µM | T47D 3.98 µM | SK-OV-3 18.4 µM | IGROV-1 16.1 µM | OVCAR-4 6.73 µM | SK-MEL-28 3.4 µM | MDA-MB-231 3.36 µM | Malme-3M 7.31 µM | UO-31 15.8 µM | MDA-N 2.04 µM | SF-268 10.5 µM | OVCAR-8 7.64 µM | K562 2.03 µM | U-251 7.05 µM | SN12C 4.06 µM | RXF 393 11.4 µM | Hs-578T 3.84 µM | DU-145 16 µM
active: NCI-H522 1.04 µM

O=C(O)CP(=O)(O)O
inactive: BT-549 > 100 µM | NCI-H522 > 100 µM | SK-MEL-2 > 100 µM | T47D > 100 µM | SK-OV-3 > 100 µM | IGROV-1 > 100 µM | OVCAR-4 > 100 µM | SK-MEL-28 > 100 µM | MDA-MB-231 > 100 µM | Malme-3M > 100 µM | UO-31 > 100 µM | MDA-N > 100 µM | SF-268 > 100 µM | OVCAR-8 > 100 µM | K562 > 100 µM | U-251 > 100 µM | SN12C > 100 µM | RXF 393 > 100 µM | Hs-578T > 100 µM | DU-145 > 100 µM

CC(C)C(C/C=C1/CC(CO)(COC(=O)C2CCCCC2)OC1=O)C(C)C (stereo not given)
inactive: BT-549 25.2 µM | NCI-H522 17.3 µM | SK-MEL-2 > 100 µM | T47D 21.3 µM | SK-OV-3 > 100 µM | IGROV-1 19.1 µM | OVCAR-4 19.8 µM | SK-MEL-28 18.6 µM | MDA-MB-231 17 µM | Malme-3M 17.3 µM | UO-31 17.7 µM | MDA-N 19.1 µM | SF-268 17.6 µM | OVCAR-8 17.7 µM | K562 6.79 µM | U-251 18.3 µM | SN12C 16.8 µM | RXF 393 21.5 µM | Hs-578T 16.7 µM | DU-145 13.2 µM

O=C(/C=C/c1ccc(O)c(-c2cc(C(=O)/C=C/c3ccc(O)cc3)c(O)cc2O)c1)c1ccc(O)cc1O [RHUSCHALCONE VI]
inactive: BT-549 15.5 µM | NCI-H522 37.4 µM | SK-MEL-2 20.7 µM | T47D 33.3 µM | SK-OV-3 16.1 µM | IGROV-1 24.5 µM | OVCAR-4 17.9 µM | SK-MEL-28 10.4 µM | MDA-MB-231 29.7 µM | Malme-3M 22.1 µM | UO-31 > 50 µM | MDA-N 18.3 µM | SF-268 17.5 µM | OVCAR-8 11.7 µM | K562 13.6 µM | U-251 15.8 µM | SN12C 20.4 µM | RXF 393 17.2 µM | Hs-578T 30 µM | DU-145 40.5 µM
